According to patent US20250340569A1, “INHIBITORS OF KIF18A AND USES THEREOF” (Insilico Medicine IP Limited, priority 2023, published 2025):

What follows are compounds tested on OVCAR-3 (assay: OVCAR3 CTG assay). Conditions: Homo sapiens, OVCAR-3, 144 h; CellTiter-Glo, 6 days incubation.
Format: cell-based
Description: Example B2: OVCAR3 CTG Assay
• a) Preparation of complete medium: Added FBS and appropriate additives according to the information sheet provided by the vendor. Mix gently. • b) Checked the cell name and complete medium and passage number marked on the flask. For adherent cell lines, refer to c to k. For suspension cell lines, refer to g to k. • c) Removed and discarded culture medium using a vacuum pump. • d) Briefly rinsed the cell layer with 0.25% (w/v) Trypsin-0.038% (w/v) EDTA solution to remove all traces of serum that contains trypsin inhibitor. • e) Added 3.0 ml of Trypsin-EDTA solution to flask and observed cells under an inverted microscope until cell layer is dispersed. • f) Added 9.0 ml of complete growth medium and aspirated cells by gently pipetting. • g) Transfered the cell suspension to a centrifuge tube and centrifuged at 1000 rpm for 4 minutes. • h) Discarded the supernatant using a vacuum pump. • i) Added appropriate volume of complete medium. Suspended the cell pellet by gently pipetting. • j) Counted the cell numbers with Vi-cell XR and adjusted cells to appropriate density. • k) Added 190 μL of cell suspension to 96-well opaque-walled clear bottom plates according to the planned plate layout and placed the plates in the CO2 incubator overnight.
2) Compound Stock Preparation:
• a) Plate preparation of testing articles:
The compounds were dissolved in DMSO to prepare 10 mM stock solution. The start working concentration (2 mM) was prepared with DMSO.
b) Staurosporine Plate Preparation:
0.4 mM Staurosporine was prepared in DMSO at working concentration.
The 20× compound containing medium was prepared according to the plate map. 10 μL of 20× compound containing medium was added into each well of the assay plates. Centrifuged at 1000 rpm for 1 minute. The total dilution was 200-fold.
3) Cells were Incubated with the Compounds for 6 Days at 5% CO2, 37° C.
Assay Measurement for CTG Assay
1) Preparation of Reagents
• a) Thawed the CellTiter-Glo buffer and equilibrated to room temperature prior to use. • b) Equilibrated the lyophilized CellTiter-Glo substrate to room temperature prior to use. • c) Transfered the appropriate volume of CellTiter-Glo buffer into the amber bottle containing CellTiter-Glo substrate to reconstitute the lyophilized enzyme/substrate mixture. This formed the CellTiter-Glo reagent. • d) Mixed by gently vortexing, swirling or by inverting the contents to obtain a homogeneous solution. The CellTiter-Glo substrate went into solution easily in less than one minute.
• a) Observed the cell morphology under an inverted microscope after corresponding treatment. • b) Equilibrated the plate and its contents to room temperature for approximately 30 minutes. • c) Added 100 μL of CellTiter-Glo reagent to the assay plate by Multidrop Combi instrument. • d) Mixed contents for 10 minutes on an orbital shaker to induce cell lysis. • e) Allowed the plate to incubate at room temperature for 10 minutes to stabilize luminescent signal. • f) Pasted the clear bottom with white back seal and record luminescence with Envision. The settings should be: Luminescence, measurement time 0.1 s.

Row | SMILES | IC50 [nM]
1 | Cc1cc2nc(n1)NCCOC[C@@H]1CCC[C@H](COc3cc(NS(=O)(=O)CCO)ccc3C(=O)N2)C1 (relative stereo) [EX106] | 1000 to 10000
2 | CC1CCCC2(C(F)(F)F)CCN(CC2)c2cc(NS(=O)(=O)CCO)ncc2C(=O)Nc2cccc(n2)NC1 (single isomer, unassigned) [EX100-B] | < 10
3 | CC12CCN(CC1)c1cc(NS(=O)(=O)CCO)ccc1C(=O)Nc1cccc(n1)OCCOC2 [EX01] | 100 to 1000
4 | CC12CCN(CC1)c1cc(NS(=O)(=O)CCO)ccc1C(=O)Nc1cccc(n1)OCCCOC2 [EX02] | 10 to 100
5 | Cc1cc2nc(n1)OCCOCC1(C)CCN(CC1)c1cc(NS(=O)(=O)CCO)ccc1C(=O)N2 [EX03] | 100 to 1000
6 | CCS(=O)(=O)Nc1ccc2c(c1)N1CCC(C(F)(F)F)(CC1)COC[C@@H](C)CNc1cccc(n1)NC2=O [EX88-A] | 10 to 100
7 | CCS(=O)(=O)Nc1ccc2c(c1)N1CCC(C(F)(F)F)(CC1)COC[C@H](C)CNc1cccc(n1)NC2=O [EX88-B] | < 10
8 | CN1CCCCCC2(C(F)(F)F)CCN(CC2)c2cc(NS(=O)(=O)CCO)ncc2C(=O)Nc2cccc1n2 [EX89] | 10 to 100
9 | CN1CCCCCC2(C(F)(F)F)CCN(CC2)c2cc(NS(=O)(=O)CCO)ccc2C(=O)Nc2ccnc1n2 [EX90] | 10 to 100
10 | CN1CCC/C=C/C2(C(F)(F)F)CCN(CC2)c2cc(NS(=O)(=O)CCO)ccc2C(=O)Nc2ccnc1n2 [EX91] | 10 to 100
11 | O=C1Nc2cccc(n2)N2CCO[C@H](COCC3(C(F)(F)F)CCN(CC3)c3cc(NS(=O)(=O)CCO)ncc31)C2 [EX92-A] | 10 to 100
12 | O=C1Nc2ccnc(n2)N2CCO[C@H](COCC3(C(F)(F)F)CCN(CC3)c3cc(NS(=O)(=O)CCO)ccc31)C2 [EX93-A] | < 10
13 | O=C1Nc2ccnc(n2)N2CCO[C@@H](COCC3(C(F)(F)F)CCN(CC3)c3cc(NS(=O)(=O)CCO)ccc31)C2 [EX93-B] | 10 to 100
14 | CN1CCCOCC2(C(F)(F)F)CCN(CC2)c2cc(NS(=O)(=O)CCO)ccc2C(=O)Nc2cc(Cl)nc1n2 [EX94] | 100 to 1000
15 | CN1CCCOCC2(C(F)F)CCN(CC2)c2cc(NS(=O)(=O)CCO)ccc2C(=O)Nc2ccnc1n2 [EX95] | 10 to 100
16 | Cc1cc2nc(n1)N1CCO[C@H](COCC3(C(F)(F)F)CCN(CC3)c3cc(NS(=O)(=O)CCO)ccc3C(=O)N2)C1 [EX96-A] | < 10
17 | CCS(=O)(=O)Nc1cc2c(cn1)C(=O)Nc1cccc(n1)N(C)CCCOCC1(C(F)(F)F)CCN2CC1 [EX97] | 10 to 100
18 | CCS(=O)(=O)Nc1cc2c(cn1)C(=O)Nc1cccc(n1)N(C)CCCCCC1(C(F)(F)F)CCN2CC1 [EX98] | 100 to 1000

Row | SMILES | IC50 [nM]
19 | CN1CCCOCC2(C(F)(F)F)CCN(CC2)c2cc(NS(=O)(=O)CCO)ccc2C(=O)Nc2cc(Cl)cc1n2 [EX99] | 100 to 1000
20 | C[C@@H]1CCCC2(C(F)(F)F)CCN(CC2)c2cc(NS(=O)(=O)CCO)ncc2C(=O)Nc2cccc(n2)NC1 [EX100-A] | 10 to 100
21 | CCS(=O)(=O)Nc1cc2c(cn1)C(=O)Nc1cccc(n1)NC[C@H](C)CCCC1(C(F)(F)F)CCN2CC1 [EX101-A] | 10 to 100
22 | CCS(=O)(=O)Nc1cc2c(cn1)C(=O)Nc1cccc(n1)NC[C@@H](C)CCCC1(C(F)(F)F)CCN2CC1 [EX101-B] | < 10
23 | C[C@H]1CCCC2(C(F)F)CCN(CC2)c2cc(NS(=O)(=O)CCO)ccc2C(=O)Nc2cccc(n2)NC1 [EX102-B] | < 10
24 | O=C1Nc2cccc(n2)NCCCCCC2(C(F)(F)F)CCN(CC2)c2cc(NS(=O)(=O)CCO)ccc21 [EX103] | < 10
25 | CN1CCCCCC2(C(F)(F)F)CCN(CC2)c2cc(NS(=O)(=O)CCO)c(F)cc2C(=O)Nc2cccc1n2 [EX104] | 10 to 100
26 | C[C@@H]1CCCC2(C(F)(F)F)CCN(CC2)c2cc(NS(=O)(=O)CCO)c(F)cc2C(=O)Nc2cccc(n2)NC1 [EX105-A] | < 10
27 | C[C@@H]1CCOCC2(C(F)(F)F)CCN(CC2)c2cc(NS(=O)(=O)CCO)ccc2C(=O)Nc2cccc(n2)N1 [EX107-A] | 100 to 1000
28 | C[C@H]1CCOCC2(C(F)(F)F)CCN(CC2)c2cc(NS(=O)(=O)CCO)ccc2C(=O)Nc2cccc(n2)N1 [EX107-B] | 10 to 100
29 | CN1CC(F)(F)COCC2(C(F)(F)F)CCN(CC2)c2cc(NS(=O)(=O)CCO)ccc2C(=O)Nc2cccc1n2 [EX108] | 100 to 1000
30 | O=C1Nc2cccc(n2)NCC(F)(F)COCC2(C(F)(F)F)CCN(CC2)c2cc(NS(=O)(=O)CCO)ccc21 [EX109] | 10 to 100
31 | CN1CCCOCC2(C(F)F)CCN(CC2)c2cc(NS(=O)(=O)CCO)ccc2C(=O)Nc2cccc1n2 [EX110] | 10 to 100
32 | Cc1cc2nc(n1)N1CCO[C@H](CCCC3(C(F)(F)F)CCN(CC3)c3cc(NS(=O)(=O)CCO)ccc3C(=O)N2)C1 [EX111-A] | 100 to 1000
33 | Cc1cc2nc(n1)N1CCO[C@@H](CCCC3(C(F)(F)F)CCN(CC3)c3cc(NS(=O)(=O)CCO)ccc3C(=O)N2)C1 [EX111-B] | 10 to 100
34 | Cc1cc2nc(n1)N1CCO[C@@H](COCC3(C(F)F)CCN(CC3)c3cc(NS(=O)(=O)CCO)ccc3C(=O)N2)C1 [EX113-B] | 10 to 100
35 | Cc1cc2nc(n1)N1CCC(F)(F)[C@H](CCCC3(C)CCN(CC3)c3cc(NS(=O)(=O)CCO)ccc3C(=O)N2)C1 [EX115-A] | 100 to 1000

These compounds were tested against T1, Kif18A (Homo sapiens, UniProt Q8NI77) (assay: KIF18A assay (ADP Glo)). Conditions: biochemical assay, ADP Glo luminescence.
T1 sequence (Q8NI77 1-898): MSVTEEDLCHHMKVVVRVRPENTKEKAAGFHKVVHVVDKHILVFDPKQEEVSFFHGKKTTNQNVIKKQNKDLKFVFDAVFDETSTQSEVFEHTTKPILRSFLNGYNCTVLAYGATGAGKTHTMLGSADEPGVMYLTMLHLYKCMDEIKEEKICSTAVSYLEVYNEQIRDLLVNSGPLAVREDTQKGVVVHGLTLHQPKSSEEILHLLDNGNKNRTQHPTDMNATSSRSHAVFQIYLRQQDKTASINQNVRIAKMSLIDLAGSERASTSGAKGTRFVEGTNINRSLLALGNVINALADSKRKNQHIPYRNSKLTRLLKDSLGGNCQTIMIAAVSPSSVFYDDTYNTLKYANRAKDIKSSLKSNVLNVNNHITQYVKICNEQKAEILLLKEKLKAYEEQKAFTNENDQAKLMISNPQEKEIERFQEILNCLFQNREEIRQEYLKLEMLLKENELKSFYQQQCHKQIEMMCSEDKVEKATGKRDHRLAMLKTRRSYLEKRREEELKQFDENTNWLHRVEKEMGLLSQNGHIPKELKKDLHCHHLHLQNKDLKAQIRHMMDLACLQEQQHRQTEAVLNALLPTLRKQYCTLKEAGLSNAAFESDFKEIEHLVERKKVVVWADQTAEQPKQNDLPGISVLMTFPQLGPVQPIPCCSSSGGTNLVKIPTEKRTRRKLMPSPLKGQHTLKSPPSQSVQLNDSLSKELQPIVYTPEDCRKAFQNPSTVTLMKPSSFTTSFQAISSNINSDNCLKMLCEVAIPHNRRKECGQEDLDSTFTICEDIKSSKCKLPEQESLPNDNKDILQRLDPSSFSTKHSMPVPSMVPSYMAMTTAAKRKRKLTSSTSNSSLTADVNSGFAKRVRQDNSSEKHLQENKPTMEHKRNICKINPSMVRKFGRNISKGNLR
Experimental: The KIF18A assay was performed as follows:
1.1. Prepared 1× Kinase Buffer
• a) Added 40 μL test compound to 384-well dilution plate • b) Diluted compound 1:3 in succession in DMSO for each column for 10 pts • c) Transferred 0.1 μL diluted compound solution to 384 assay plate using Echo, each column containing 2 replicates • d) Added 5 μL enzyme working solution to 384-well assay plate, centrifuge 1000 RPM for 1 min e) Incubated at 25° C. for 15 min • f) Added 5 μL ATP working solution to initiate reaction • g) Incubated at 25° C. for 60 min • h) Added 10 μL ADP Glo reagent, centrifuge 1000 RPM for 1 min • i) Incubated at 25° C. for 60 min • j) Added 20 μL kinase detection reagent, centrifuge 1000 RPM for 1 min • k) Incubated at 25° C. for 60 min • l) Read Luminescence Signal on Envision 2104 plate reader.
1.3. Data Analysis—Calculated IC50 and Plot Dose-Response Curve of Compounds:
Calculated IC50 by fitting % Inhibition values and log of compound concentrations to nonlinear regression (dose response−variable slope) with GraphPad 6.0.
[formula] • X: log of inhibitor concentration; Y: % Inhibition

Row | SMILES | IC50 [nM]
36 | Cc1cc2nc(n1)NCCOC[C@@H]1CCC[C@H](COc3cc(NS(=O)(=O)CCO)ccc3C(=O)N2)C1 (relative stereo) [EX106] | 100 to 1000
37 | CC1CCCC2(C(F)(F)F)CCN(CC2)c2cc(NS(=O)(=O)CCO)ncc2C(=O)Nc2cccc(n2)NC1 (single isomer, unassigned) [EX100-B] | < 10
38 | CC12CCN(CC1)c1cc(NS(=O)(=O)CCO)ccc1C(=O)Nc1cccc(n1)OCCOC2 [EX01] | 10 to 100
39 | CC12CCN(CC1)c1cc(NS(=O)(=O)CCO)ccc1C(=O)Nc1cccc(n1)OCCCOC2 [EX02] | < 10
40 | Cc1cc2nc(n1)OCCOCC1(C)CCN(CC1)c1cc(NS(=O)(=O)CCO)ccc1C(=O)N2 [EX03] | 10 to 100
41 | Cc1cc2nc(n1)NCC(O)COCC1(C)CCN(CC1)c1cc(NS(=O)(=O)CCO)ccc1C(=O)N2 (centres unmarked) [EX40] | 10 to 100
